Laboratory results from patent US7144452B2, “Ink jet black ink, ink set, ink jet recording method, ink cartridge, recording unit, and ink jet recording apparatus” (Canon Kabushiki Kaisha, priority 2004, dated 2006).
Like-named read-outs stand apart in the source and are kept apart here.

Test: Relative permittivity of water-soluble organic solvent (LCR meter)
Type: physicochemical
Procedure: The relative permittivity of the water-soluble organic solvent of various types was measured with LCR Meter 4284A (manufactured by Hewlett-Packard Japan, Ltd.) under conditions of a room temperature of 20° C. and a measurement frequency of 1 MHz.

[1] = room temperature of 20° C., 1 MHz

SMILES	Relative permittivity (measurement frequency: 1 MHz) [1]	Relative permittivity (measurement frequency: 1 MHz)
OCCCCC(O)CO (stereo not drawn) [1,2,6-Hexanetriol]	28.5	–
CC(O)CO (stereo not drawn) [1,2-Propanediol]	32.2	–
OCCCCO [1,4-Butanediol]	–	31.3
O=C1CCCN1 [2-Pyrrolidone]	27.5	–
OCCO [Ethylene glycol]	–	38.1
OCC(O)CO [Glycerol]	43.0	–
